Assay results as given in patent US20160046592A1, “PHARMACEUTICAL COMPOSITION FOR THE TREATMENT OF DIABETES” (Ajinomoto Co., Inc., priority 2013, published 2016).
Where a name gives a salt, the structure may show the parent alone.

Each compound was assayed against T1, human GYS1 (glycogen synthase) (Homo sapiens, UniProt P13807) (assay: Measurement of glycogen synthase activity). Settings: concentration causing 50% increase in relative activity; 100% = compound of Example 1 of WO/2011/058154 at 10 μM; 10 mM Glucose-6-phosphate; 37° C. for 25 minutes (Examples 1 to 61 and 67 to 82) or 20 minutes (Examples 62 to 66); absorbance at 340 nm.
T1 construct: made in house; host or cells: HEK293T
T1 sequence (P13807 1-737): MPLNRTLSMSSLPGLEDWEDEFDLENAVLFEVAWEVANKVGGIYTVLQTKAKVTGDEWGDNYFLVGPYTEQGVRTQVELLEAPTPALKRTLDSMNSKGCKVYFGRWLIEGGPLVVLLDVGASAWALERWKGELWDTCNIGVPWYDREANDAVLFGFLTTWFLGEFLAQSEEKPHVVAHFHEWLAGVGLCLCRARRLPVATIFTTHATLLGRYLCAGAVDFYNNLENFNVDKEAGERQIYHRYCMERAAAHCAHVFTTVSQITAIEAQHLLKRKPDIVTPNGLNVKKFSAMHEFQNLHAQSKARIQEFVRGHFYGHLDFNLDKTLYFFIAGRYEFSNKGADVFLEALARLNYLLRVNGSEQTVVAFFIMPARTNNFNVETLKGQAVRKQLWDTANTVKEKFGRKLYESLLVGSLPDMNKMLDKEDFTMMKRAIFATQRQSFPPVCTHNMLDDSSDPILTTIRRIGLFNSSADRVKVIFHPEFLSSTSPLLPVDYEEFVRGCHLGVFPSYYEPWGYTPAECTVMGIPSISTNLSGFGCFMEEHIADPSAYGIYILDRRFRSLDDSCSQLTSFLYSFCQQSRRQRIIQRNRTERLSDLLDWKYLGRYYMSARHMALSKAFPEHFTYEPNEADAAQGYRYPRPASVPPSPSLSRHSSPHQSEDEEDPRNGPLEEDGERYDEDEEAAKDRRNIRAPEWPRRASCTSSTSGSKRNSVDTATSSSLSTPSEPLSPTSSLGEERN
Assay type: biochemical
Method: A human GYS1 expression plasmid (pCDNA3.1(+)-hGYS1) was constructed by the following method. By using a human skeletal muscle cDNA of Human MTC Panel I (Takara Bio Inc., 636742) as a template, a human GYS1 gene was amplified by a PCR method using cloning primers (Forward Primer: ATGCCTTTAAACCGCAC, Reverse Primer: TTAGTTACGCTCCTCGC). By using the amplified human GYS1 sequence as a template, restriction enzyme sequences were added by a PCR method using sub-cloning primers (Forward Primer: […], and Reverse Primer: […]), and then the human GYS1 gene was introduced between Xho I and Xba I sites of pCDNA3.1(+) (Invitrogen, V790-20).
Glycogen synthase was prepared by the following method. Human kidney-derived HEK293T cells were seeded in a dish (Thermo Fisher Scientific K.K., 168381) by using a 10% FBS-containing DMEM (Nacalai Tesque, Inc., 0845874) medium, and cultured overnight. Then, by using Lipofectamine LTX (Invitrogen, 15338-100), the cells were transfected with the human GYS1 expression vector according to the attached manual. After culturing under conditions of 37° C. and 5% CO2 for 2 days, the resultant was lysed in a lysis buffer (50 mM Tris-HCl (pH 8.0), 10 mM EDTA, 2 mM EGTA, 100 mM NaF, 1 mM PMSF, 1 mM DTT, and 1× Complete (Roche, 1873580)), homogenized, and then centrifuged at 16000×g at 4° C. for 15 minutes. The precipitated fraction re-dissolved by adding the lysis buffer was used as a glycogen synthase for evaluation.
The glycogen synthase activity was measured by the following method. To a polystyrene 96-well plate, solutions each containing 30 mM glycylglycine (pH 7.3), 40 mM KCl, 20 mM MgCl2, 9.2% DMSO containing one of the test compounds at one of various concentrations, and 10 mM Glucose-6-phosphate (Sigma-Aldrich, G7879) were added at 12 μL/well.
Next, a substrate solution containing 30 mM glycylglycine (pH 7.3), 4.3 mg/mL glycogen (Sigma-Aldrich, G8876), 21.6 mM UDP-glucose (Sigma-Aldrich, U4625), 21.6 mM phosphoenolpyruvic acid (Sigma-Aldrich, P0564), and 4.05 mM NADH (Sigma-Aldrich, N8129) was added at 18 μL/well.
Moreover, an enzyme solution containing 50 mM Tris-HCl (pH 8.0), 27 mM DTT (NACALAI TESQUE, INC., 14128-04), 0.2 mg/mL bovine serum albumin, 0.17 mg/mL glycogen synthase, and 1.5 μL pyruvate kinase/lactate dehydrogenase solution (Sigma-Aldrich, P0294) was added at 18 μL/well to prepare reaction solutions. After the reaction solutions were incubated (at 37° C. for 25 minutes for Examples 1 to 61 and 67 to 82 or at 37° C. for 20 minutes for Examples 62 to 66), the absorbance at 340 nm was measured by using Benchmark Plus (Bio-Rad Laboratories, Inc.).
The activity of each test compound was calculated by the following method. The absorbance at 340 nm of the reaction solution containing the compound and DMSO was subtracted from the absorbance at 340 nm of a reaction solution not containing the compound but containing only DMSO to calculate the change (ΔA340) in absorbance. The relative activity (%) of the test compound at each of the various concentrations was calculated, where the ΔA340 of a reaction solution containing the compound of Example 1 of WO/2011/058154 at a final concentration of 10 μM was taken as 100%. EC50 representing the concentration of the compound at which an increase in the relative activity by 50% was caused was calculated using XLfit (idbs).
In the case of CSc1cc(F)c(F)cc1-c1ccc(OCc2cccc(C(=O)N(CC(=O)O)CC3CCN(C)CC3)c2)cc1 [Example 37, 2-[[3-[[4-(4,5-Difluoro-2-methylsulfanyl-phenyl)phenoxy]methyl]benzoyl]-[(1-methyl-4-piperidyl)methyl]amino]acetic Acid Trifluoroacetate], the EC50 is reported as 23 nM.
Work on CCN1CCC(CN(CC(=O)O)C(=O)c2cccc(COc3ccc(-c4cc(F)c(F)cc4SC)cc3)c2)CC1 [Example 38, 2-[[3-[[4-(4,5-Difluoro-2-methylsulfanyl-phenyl)phenoxy]methyl]benzoyl]-[(1-ethyl-4-piperidyl)methyl]amino]acetic Acid Trifluoroacetate] yielded an EC50 of 19 nM.
CSc1cc(F)c(F)cc1-c1ccc(OCc2cccc(C(=O)N(CC(=O)O)Cc3cccnc3)c2)cc1 [Example 39, 2-[[3-[[4-(4,5-Difluoro-2-methylsulfanyl-phenyl)phenoxy]methyl]benzoyl]-(3-pyridylmethyl)amino]acetic Acid Trifluoroacetate] gave an EC50 of 21 nM.
With CSc1cc(F)c(F)cc1-c1ccc(OCc2cccc(C(=O)N(CCN3CCCC3)CC(=O)O)c2)cc1 [Example 40, 2-[[3-[[4-(4,5-Difluoro-2-methylsulfanyl-phenyl)phenoxy]methyl]benzoyl]-(2-pyrrolidin-1-ylethyl)amino]acetic Acid Trifluoroacetate] the EC50 was 24 nM.
CSc1cc(F)c(F)cc1-c1ccc(OCc2cccc(C(=O)N(CCN3CCS(=O)(=O)CC3)CC(=O)O)c2)cc1 [Example 41, 2-[[3-[[4-(4,5-Difluoro-2-methylsulfanyl-phenyl)phenoxy]methyl]benzoyl]-[2-(1,1-dioxo-1,4-thiazinan-4-yl)ethyl]amino]acetic Acid Trifluoroacetate] gave an EC50 of 21 nM.
CSc1cc(F)c(F)cc1-c1ccc(OCc2cccc(C(=O)N(CC(=O)O)Cc3ncco3)c2)cc1 [Example 42, 2-[[3-[[4-(4,5-Difluoro-2-methylsulfanyl-phenyl)phenoxy]methyl]benzoyl]-(oxazol-2-ylmethyl)amino]acetic Acid] showed an EC50 of 19 nM.
CCNCCN(CC(=O)O)C(=O)c1cccc(COc2ccc(-c3cc(F)c(F)cc3SC)cc2)c1 [Example 43, 2-[[3-[[4-(4,5-Difluoro-2-methylsulfanyl-phenyl)phenoxy]methyl]benzoyl]-[2-(ethylamino)ethyl]amino]acetic Acid Trifluoroacetate] was tested, and the EC50 was 19 nM.
With CSc1cc(F)c(F)cc1-c1ccc(OCc2cccc(C(=O)N(CCNC(C)=O)CC(=O)O)c2)cc1 [Example 44, 2-[2-Acetamidoethyl-[3-[[4-(4,5-difluoro-2-methylsulfanyl-phenyl)phenoxy]methyl]benzoyl]amino]acetic Acid] the EC50 was 25 nM.
COC(C)CN(CC(=O)O)C(=O)c1cccc(COc2ccc(-c3cc(F)c(F)cc3SC)cc2)c1 (stereo not shown) [Example 45, 2-[[3-[[4-(4,5-Difluoro-2-methylsulfanyl-phenyl)phenoxy]methyl]benzoyl]-(2-methoxypropyl)amino]acetic Acid] showed an EC50 of 7.7 nM.
For CSc1cc(F)c(F)cc1-c1ccc(OCc2cccc(C(=O)N(CC(=O)O)CC3CCS(=O)(=O)C3)c2)cc1 (stereo not shown) [Example 46, 2-[[3-[[4-(4,5-Difluoro-2-methylsulfanyl-phenyl)phenoxy]methyl]benzoyl]-[(1,1-dioxothiolan-3-yl)methyl]amino]acetic Acid], the EC50 was 25 nM.
In the case of CSc1cc(F)c(F)cc1-c1ccc(OCc2cccc(C(=O)N(CC(=O)O)Cc3cnco3)c2)cc1 [Example 47, 2-[[3-[[4-(4,5-Difluoro-2-methylsulfanyl-phenyl)phenoxy]methyl]benzoyl]-(oxazol-5-ylmethyl)amino]acetic Acid], the EC50 is reported as 18 nM.
CSc1cc(F)c(F)cc1-c1ccc(OCc2cccc(C(=O)N(CC(=O)O)[C@H]3CC[C@@H](N)CC3)c2)cc1 [Example 48, 2-[(4-Aminocyclohexyl)-[3-[[4-(4,5-difluoro-2-methylsulfanyl-phenyl)phenoxy]methyl]benzoyl]amino]acetic Acid Trifluoroacetate] gave an EC50 of 13 nM.
In the case of COCCOCCN(CC(=O)O)C(=O)c1cccc(COc2ccc(-c3cc(F)c(F)cc3SC)cc2)c1 [Example 49, 2-[[3-[[4-(4,5-Difluoro-2-methylsulfanyl-phenyl)phenoxy]methyl]benzoyl]-[2-(2-methoxyethoxy)ethyl]amino]acetic Acid], the EC50 is reported as 9.5 nM.
In the case of CSc1cc(F)c(F)cc1-c1ccc(OCc2cccc(C(=O)N(CC(=O)O)CC3CCCNC3)c2)cc1 (stereo not shown) [Example 50, 2-[[3-[[4-(4,5-Difluoro-2-methylsulfanyl-phenyl)phenoxy]methyl]benzoyl]-(3-piperidylmethyl)amino]acetic Acid Trifluoroacetate], the EC50 is reported as 6.3 nM.
CSc1cc(F)c(F)cc1-c1ccc(OCc2cccc(C(=O)N(CCS(N)(=O)=O)CC(=O)O)c2)cc1 [Example 51, 2-[[3-[[4-(4,5-Difluoro-2-methylsulfanyl-phenyl)phenoxy]methyl]benzoyl]-(2-sulfamoylethyl)amino]acetic Acid] gave an EC50 of 5.2 nM.
CSc1cc(F)c(F)cc1-c1ccc(OCc2cccc(C(=O)N(CC(=O)O)Cc3cocn3)c2)cc1 [Example 52, 2-[[3-[[4-(4,5-Difluoro-2-methylsulfanyl-phenyl)phenoxy]methyl]benzoyl]-(oxazol-4-ylmethyl)amino]acetic Acid] showed an EC50 of 4.4 nM.
For CSc1cc(F)c(F)cc1-c1ccc(OCc2cccc(C(=O)N(CC(=O)O)Cc3ccncn3)c2)cc1 [Example 53, 2-[[3-[[4-(4,5-Difluoro-2-methylsulfanyl-phenyl)phenoxy]methyl]benzoyl]-(pyrimidin-4-ylmethyl)amino]acetic Acid], the EC50 was 7.9 nM.
CSc1cc(F)c(F)cc1-c1ccc(OCc2cccc(C(=O)N(CC(=O)O)Cc3ccn[nH]3)c2)cc1 [Example 54, 2-[[3-[[4-(4,5-Difluoro-2-methylsulfanyl-phenyl)phenoxy]methyl]benzoyl]-(1H-pyrazol-5-ylmethyl)amino]acetic Acid] showed an EC50 of 15 nM.
For CSc1cc(F)c(F)cc1-c1ccc(OCc2cccc(C(=O)N(CC(=O)O)Cc3ccnn3C)c2)cc1 [Example 55, 2-[[3-[[4-(4,5-Difluoro-2-methylsulfanyl-phenyl)phenoxy]methyl]benzoyl]-[(2-methylpyrazol-3-yl)methyl]amino]acetic Acid], the EC50 was 22 nM.
